Patent publication US12139729B2, “Neurodegenerative disorders” (priority 2013, dated 2024)
Residues, ends and D or L forms follow the SMILES beside them. No end group written: not given here.

Tests used:
[1] = target: allosteric site on the α7 nicotinic-receptor (Rattus norvegicus, UniProt Q05941); experiment: Binding affinity for the allosteric site of the α7 nicotinic-receptor, using tests for viability
[2] = tested on: cortical networks in rat brain slices; experiment: Voltage-sensitive dye imaging (VSDI) of thalamocortical brain slices; type: cell-based, rat (Wistar); details: for T30-induced increase of rise-phase slope (velocity of propagation): n=3
Text: Using this technique the inventors can obtain comprehensive sets of data on neuronal population activity such as (a) the intensity of the response in any given area, from which (b) the spread of elicited neuronal assemblies can be measured, and from this parameter (c) the velocity of propagation of the activity wave-front from the point of initiation (d) measured as the slope of the spread. Each of these parameters have been measured independently for two experiments carried out so far: i) an investigation of the effects induced by increasing concentrations (0.5, 0.75, 1 & 5 μM) of T30 on cortical population activity and responsiveness, and 2) assessing the antagonistic effects of NBP-14 on a single, relatively high (1 uM), T30 concentration. • Technique used: voltage-sensitive dye imaging (Di-4-ANEPPS) of thalamocortical (TC) p14 rat (Wistar) brain slices. • Stimulation paradigm: 40 Hz (consistent with thalamo-cortical recurrent stimulation) paired pulse stimulation. • Perfusion paradigm: epochs carried out in two phases—for every drug perfusion (say: control, 0.1 uM T30 etc.), the new perfusion was applied and left to perfuse for 15 minutes before starting the recording period (15 minutes also), such that the drug had time to reach its actual concentration and induce its concentration-dependent effects once recording. Meaning one perfusion epoch lasted 30 minutes, with the recording only taking in account the last 15 minutes of its respective perfusion epoch. Detailed Methods Brain Slice Preparation
Male Wistar rats (14-17 day old; 15 individual animals in total) were anaesthetised using isoflurane: 10 mL 100% w/w isoflurane was applied to the cotton bed at the bottom of an anaesthesia chamber (glass box 20×15×15 cm) where rats were then placed for ˜45 seconds until onset of anaesthesia. The hind paw of each anaesthetised rat was pinched to check for appropriate depth of anaesthesia. Once anaesthesia was confirmed, rats were quickly decapitated before immersing the brain in oxygenated ice-cold artificial cerebrospinal fluid (‘slicing’ aCSF in mmol: 120 NaCl, 5 KCl, 20 NaHCO3, 2.4 CaCl2), 2 MgSO4, 1.2 KH2PO4, 10 glucose, 6.7 HEPES salt and 3.3 HEPES acid; pH: 7.1) for 7-8 minutes, the time taken to cut the brain into slices. Para-saggital sections (400 μm thick) were cut from a block of brain containing both Thalamus (VPN) and primary somato-sensory cortex (barrel field) using a Vibratome (Leica VT1000S) and transferred to a bubbler pot containing aCSF at room temperature (‘recording’ aCSF in mmol: 124 NaCl, 3.7 KCl, 26 NaHCO3, 2 CaCl2, 1.3 MgSO4, 1.3 KH2PO4 and 10 glucose; […]), which was identical to that which was used during electrophysiological recordings and VSDI. Slices were left in oxygenated (95% O2-5% CO2) ‘recording’ aCSF to recuperate for at least 1 hour before VSD staining.
Slices were placed in a dark, high humidity chamber filled with aCSF bubbling with 95% O2-5% CO2. The dye solution (4% 0.2 mM styryl dye pyridinium 4-[2-[6-(dibutylamino)-2-naphthalenyl]-ethenyl]-1-(3-sulfopropyl)hydroxide (Di-4-ANEPPS, Invitrogen, Paisley, UK) (Tominaga et al., 2000) in aCSF 46%, fetal bovine serum 46%, DMSO 3.5% and cremophore EL 0.4%) was then applied to the slices as previously described (Badin et al., 2013). When starting VSD recordings, slices were placed in the recording bath on a small piece of filter paper to keep slice alive and was weighed down appropriately using a home-made plastic grid placed atop the slice. Because of the fluorescent VSD, all of the handling of slices during and after staining with Di-4-ANEPPS was carried out in almost complete darkness in order to keep the detrimental effects of photo-toxicity and bleaching to a minimum. VPN (where stimulating electrodes were placed) was identified with respect to distance from the tip of the hippocampus and to the side of the internal capsule. […]

[3] = tested on: Aβ42; experiment: ELISA detection of Aβ42 in cell culture media; type: cell-based; details: 1 hour
Procedure: After 1 hour of treatment, the culture media was collected and diluted to 1:100, using culture media as diluent. Four repeats of each diluted sample were then placed in the plate provided by the ELISA detection kit, from AnaSpec (Fremont, CA, USA). The detection was then carried out following the manufacturer's protocol. Briefly, the sample was incubated for 4 h in presence of 50 μl of detection antibody. The plate was then washed seven times with the washing solution, the samples were then incubated with the 3,3′,5,5′-Tetramethylbenzidine (TMB) provided with the kit for 15 min. after the sample revelation the reaction was stopped with the stop solution and the optical density was read at 450 nm.
Accordingly, using immunodetection, the inventors have determined (i) APP levels and (ii) release of amyloid following administration of T30 (5 uM) and NBP14 (0.5 μM).

allosteric site on the α7 nicotinic-receptor, sequence (Q05941 23-502): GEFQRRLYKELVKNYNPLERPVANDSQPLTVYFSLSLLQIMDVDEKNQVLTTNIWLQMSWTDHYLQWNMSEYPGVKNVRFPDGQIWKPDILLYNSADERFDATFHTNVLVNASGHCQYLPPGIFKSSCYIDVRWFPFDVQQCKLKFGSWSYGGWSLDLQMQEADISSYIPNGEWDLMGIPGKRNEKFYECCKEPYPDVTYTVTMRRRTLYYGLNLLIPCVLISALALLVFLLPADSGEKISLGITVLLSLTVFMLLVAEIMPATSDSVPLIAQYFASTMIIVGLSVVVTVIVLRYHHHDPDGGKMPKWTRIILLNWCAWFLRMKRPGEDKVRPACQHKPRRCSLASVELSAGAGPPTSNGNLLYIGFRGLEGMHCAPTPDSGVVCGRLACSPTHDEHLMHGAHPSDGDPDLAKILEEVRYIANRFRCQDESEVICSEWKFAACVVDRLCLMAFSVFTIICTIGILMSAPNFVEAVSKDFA

| Molecule | affinity (Table 3 feature) ([1]; ✓ = Dream Drug feature 'Nanomolar affinity') | receptor specificity (Table 3 feature) ([1]; ✓ = Dream Drug feature 'Specific action at α7 receptor') | modulatory effects of NBP-14 on its own [2] | modulatory effects of T30 on neuronal populations under NBP-14 ([2]; 300 nM NBP-14, T30 1000 nM) | T30-induced increase of rise-phase slope (velocity of propagation) ([2]; T30 1 μM + 100 nM NBP-14 perfusion) | T30-induced increase of rise-phase slope (velocity of propagation) ([2]; T30 1 μM + 300 nM NBP-14 perfusion) | release of Aβ42 in presence of T30 and NBP-14 ([3]; T30 (5 uM) + NBP14 (0.5 μM)) | binding affinity for the allosteric site on the α7 nicotinic-receptor [1] | maximum decrease in propagation speed (slope of the rise phase) ([2]; 5 μM T30) | spread of cortical assemblies ([2]; T30 0.5, 0.75, 1 μM, affected only at 5 uM) | intensity of fluorescence given off by active pixels ([2]; increasing T30 concentration (0.5-5 μM)) | release of Aβ42 compared to control ([3]; T30 (5 uM)) |
| --- | --- | --- | --- | --- | --- | --- | --- | --- | --- | --- | --- | --- |
| CSCC[C@@H]1NC(=O)[C@H](Cc2ccc(O)cc2)NC(=O)[C@H](CO)NC(=O)[C@H](CO)NC(=O)[C@H](Cc2c[nH]c3ccccc23)NC(=O)[C@H](CCCNC(=N)N)NC(=O)[C@H](Cc2c[nH]cn2)NC(=O)[C@H](Cc2ccccc2)NC(=O)[C@H](CCC(=O)O)NC(=O)[C@H](C)NC(=O)[C@H](CCCCN)NC(=O)[C@H](Cc2c[nH]c3ccccc23)NC(=O)[C@H](Cc2c[nH]cn2)NC(=O)[C@H](C(C)C)NC1=O [Cyclic T14] (cyclo(AEFHRWSSYMVHWK)) | ✓ | ✓ | inert | reduced back to control levels | slowed down | reversed back to baseline levels | close to control |  |  |  |  |  |
| KAEFHRWSSYMVHWKNQFDHYSKQDRCSDL [T30, reference compound] |  |  |  |  |  |  |  | 5 nM | 3.5 fold | not significantly affected | diminishes | approximately 175% |
